Assay results as given in the NIST ThermoML archive (doi:10.1021/acs.jced.5b01003).
Several values for one entry are separate records, joined by “and”; a condition that tells them apart may be missing. Equal entries are not always repeated. Numbers after ± are expanded uncertainties.

Conditions: Liquid, Transpiration method

CN(C)CCN [2-dimethylamino-1-ethylamine]
Conditions	vapor or sublimation pressure
273.8 K	0.7397 ± 0.046 kPa
274.2 K	0.7526 ± 0.047 kPa
275.2 K	0.808 ± 0.051 kPa
276.7 K	0.8869 ± 0.055 kPa
278.2 K	0.9687 ± 0.06 kPa
280.7 K	1.114 ± 0.07 kPa
283.2 K	1.309 ± 0.082 kPa
285.6 K	1.561 ± 0.098 kPa
288.2 K	1.821 ± 0.11 kPa
290.7 K	2.088 ± 0.13 kPa
293.2 K	2.392 ± 0.15 kPa
295.6 K	2.763 ± 0.17 kPa
298.2 K	3.186 ± 0.2 kPa and 3.282 ± 0.2 kPa
300.7 K	3.755 ± 0.23 kPa and 3.727 ± 0.23 kPa
303.2 K	4.331 ± 0.27 kPa and 4.291 ± 0.27 kPa

CNCCNC [N1,N2-dimethylethane-1,2-diamine]
Conditions	vapor or sublimation pressure [kPa]
279.2 K	0.4258 ± 0.027
281.4 K	0.5045 ± 0.032
283.3 K	0.5851 ± 0.037
285.6 K	0.6936 ± 0.044
288.2 K	0.8579 ± 0.054
290.6 K	1.023 ± 0.064
293.2 K	1.228 ± 0.077
295.8 K	1.498 ± 0.094
298.2 K	1.781 ± 0.11
300.7 K	2.106 ± 0.13
303.4 K	2.477 ± 0.16
305.6 K	2.892 ± 0.18
308.2 K	3.408 ± 0.21
310.7 K	3.974 ± 0.25

CNCCN(C)C [N,N,N'-trimethylethylenediamine]
Conditions	vapor or sublimation pressure [kPa]
274.2 K	0.5021 ± 0.032
276.7 K	0.605 ± 0.039
281.8 K	0.8858 ± 0.056
286.8 K	1.271 ± 0.08
291 K	1.686 ± 0.11
296.3 K	2.403 ± 0.15
298.2 K	2.733 ± 0.17
301 K	3.259 ± 0.2
303.2 K	3.811 ± 0.24
304.1 K	4.074 ± 0.26
305.4 K	4.402 ± 0.27

CNCCN [N-methylethylenediamine]
Conditions	vapor or sublimation pressure [kPa]
272.2 K	0.2731 ± 0.017
274.3 K	0.3181 ± 0.02
275.4 K	0.3449 ± 0.022
278 K	0.4148 ± 0.027
278.6 K	0.4455 ± 0.028
279.4 K	0.4695 ± 0.029
280.2 K	0.4943 ± 0.031
281.3 K	0.5355 ± 0.034
282.3 K	0.5867 ± 0.037
283.1 K	0.6075 ± 0.038
284.1 K	0.6579 ± 0.042
284.9 K	0.6972 ± 0.044
286.3 K	0.7738 ± 0.049
287.8 K	0.8601 ± 0.054
289.3 K	0.9404 ± 0.059
290.6 K	1.034 ± 0.066
292.2 K	1.176 ± 0.074
294.6 K	1.394 ± 0.087
296.2 K	1.541 ± 0.097
298.1 K	1.762 ± 0.11
300.2 K	2.017 ± 0.13
302.2 K	2.275 ± 0.14
